According to paper PMC7461568, “Novel Cyclic Lipopeptide Antibiotics: Effects of Acyl Chain Length and Position” (International Journal of Molecular Sciences, 2020):
Values after ≈ are worked out from the molar mass of the structure shown. Where two headings read alike, the source gives them in different places. Where a SMILES comes first, the peptide text is derived from it. Bridges are numbered along the chain shown (N, C = ends). [ ]: non-standard residue; d: D form. The star is where a group is joined. Bip = N[C@@H](Cc1ccc(-c2ccccc2)cc1)C(=O)O; 2Nal = N[C@@H](Cc1ccc2ccccc2c1)C(=O)O; X1 = CC[C@H](C)CCCCC(=O)*; Dab = NCC[C@H](N)C(=O)O; Hexanoyl = CCCCCC(=O)*; AEEA = NCCOCCOCC(=O)O; Butyryl = CCCC(=O)*

Tests used:
[1] = tested on: K. pneumonia ATCC 13883; assay type: cell-based, Klebsiella pneumoniae; details: K. pneumoniae ATCC 13883; MHB-II, inoculum 5 × 10^5 CFU/mL, 37 °C, 18–24 h, visual read-out, triplicate
Experimental: (§1) In the original report on S3(B), MIC experiments were carried out by using non-cation-adjusted MHB-I media. To this, bovine serum albumin (BSA) and acetic acid were added. The rationale for choosing a medium without cations is that cation-adjusted media (MHB-II) in some cases causes substantial inhibition of the activity of cationic peptides. Furthermore, some peptides are at risk of precipitation when diluted into MHB medium, which can be avoided via the addition of BSA and acetic acid. However, the use of MHB-II is favorable to imitate the in vivo conditions as much as possible. Both media were tested with and without the addition of BSA and acetic acid by trial and error. The use of pure MHB-II was compatible with S3(B) and its fatty acid analogues, and therefore was chosen for the MIC determinations. Noticeably, MHB-I with BSA and acetic acid led to precipitation of lipopeptides in the present work.
(§2) Cation-adjusted Mueller-Hinton broth (MHB-II) media (BD BBLTM Beef extract powder, BD BactoTMCasamino acids, and DIFCO soluble starch was from Becton, Dickinson and Company©, Franklin Lakes, NJ, USA). MHB media supplemented with 0.2% BSA was from Sigma Aldrich (St. Louis, MO, USA) and 0.01% acetic acid from VWR®. The 96 well plate cell-culture cluster, round-bottom, polypropylene plates, and V-shaped 96 well polypropylene plates were purchased from Corning® Inc., Costar®, Corning, NY, USA. Microseal® film was obtained from Bio-Rad Laboratories, Inc., Hercules, CA, USA. A VersaMaxTM Tunable Microplate Reader (Molecular Devices LLC, Sunnyvale, CA, USA) was used and the data were evaluated on a Softmax® Pro (Molecular Devices LLC).
(§3) The MIC experiments were performed according to a protocol adapted from Wiegand et al., with minor modifications. The MICs were determined in triplicate. The peptides were dissolved in Milli-Q water to produce 10 mg/mL stock solutions in small glass containers. The bacterial isolates to be tested were streaked onto agar plates to obtain single colonies, and the plates were incubated at 37 °C for 18–24 h. The strains tested were S. aureus ATCC 29213, P. aeruginosa ATCC 27853, E. coli ATCC 25922, A. baumannii ATCC 19606, and K. pneumonia ATCC 13883. Test compounds were prepared in 2-fold dilutions in 50 μL volumes in polypropylene microtiter plates. Bacterial cultures grown to OD600 = 0.1–0.4 were diluted to a desired OD600 of 0.001–0.002 corresponding to 1 × 10^6 CFU/mL. Next, 50 μL bacterial suspension was added to the microtiter plates, giving a final bacterial inoculum of 5 × 10^5 CFU/mL per well. The plates were incubated at 37 °C for 18–24 h. […] The MIC values were visually evaluated, and the MIC was set to the lowest concentration […] based on triplicate measurements. […]

[2] = tested on: human erythrocytes; test: Hemolysis of red blood cells; details: 1 h; for %H, percent hemolytic activity against red blood cells at 150 μM: human erythrocytes, 0.5% v/v RBC suspension in PBS, peptide 150 μM, 37 °C, absorbance 414 nm, melittin positive control, triplicate
Experimental: The hemolysis experiments were performed according to the protocol described in Reference. The peptides were tested at concentrations from 2.35–150 μM, using melittin as positive control and PBS as negative control. One premade tablet of PBS was dissolved in 200 mL Milli-Q water. The solution was kept in the refrigerator for a maximum of two days. The day before the test, the positive control wells of the 96 well polypropylene plates were precoated with 150 μL of melittin 5 μM solution in PBS. The solution was prepared in Protein LoBind Eppendorf tubes. The day of the test, the solution was discarded and the wells were washed three times with 150 μL PBS. A melittin 2.50 μM solution in PBS was prepared in Protein LoBind Eppendorf tubes—500 μL for every plate to be used. The mass of the peptide needed to reach a final concentration of 300 μM (to start testing down from 150 μM) was calculated, since a volume of 500 μL was desirable. […] The peptides were dissolved in PBS and tested in triplicate.
In a 96 well polypropylene plate, 150 μL of peptide solution was transferred to three wells in Row A. Therefore, each plate could accommodate up to four peptides. A 2-fold serial dilution of the peptides was obtained by transferring 75 μL of the solutions from Row A to the corresponding wells in Row B, mixing a couple of times. From Row B, 75 μL was transferred to Row C and so on until Row G, where 75 μL was discarded after mixing. Volumes of 75 μL melittin (2.50 μM) was transferred to the positive control wells in H1–H6. Preparation of the RBC suspension: 1 mL of whole blood was transferred to a cryotube with 3 mL of PBS, and then it was gently mixed and centrifuged for 8 min at 3000 rpm. The supernatant was discarded, and the process was repeated twice; with 4 mL at 3000 rpm and 4 mL at 4000 rpm, respectively. From the final RBC pellet, 40 μL was transferred to 8 mL of PBS (multiplied by the number of test plates needed). This corresponded to a 0.5% v/v RBC suspension. The suspension was gently mixed and transferred into a CAPPOrigami reservoir. Using a multichannel pipette, 75 μL of the suspension was transferred into each well and mixed in the direction of increasing concentration. The control wells were mixed separately. The plates were covered with BioradMicroseal foil and incubated at 37 °C for 1 h. The plates (maximum two) were centrifuged for 10 min at 4000 rpm, followed by transferring of supernatant (60 μL) from each well into the corresponding wells in a clear ELISA plate. The absorbance (A) of each well was measured at λ = 414 nm using the software program Softmax(R) Pro.

[3] = Hydrophobicity by analytical RP-HPLC (%B at peak elution); assay type: physicochemical; details: chromatographic, percentage of mobile phase B at the peak elution time
Excerpt: To investigate the effect of attaching fatty acids to a macrocycle, fatty acid tails of different lengths were used. When the carbon chain was elongated, the hydrophobicity of the peptide was increased gradually. Herein, the hydrophobicity is expressed as the percentage of mobile phase B at the peak elution time on an RP-HPLC system.

[4] = tested on: E. coli ATCC 25922; assay type: cell-based, Escherichia coli; details: MHB-II, inoculum 5 × 10^5 CFU/mL, 37 °C, 18–24 h, visual read-out, triplicate
Experimental: as §1, §2, §3

[5] = tested on: P. aeruginosa ATCC 27853; assay type: cell-based, Pseudomonas aeruginosa; details: MHB-II, inoculum 5 × 10^5 CFU/mL, 37 °C, 18–24 h, visual read-out, triplicate
Experimental: as §1, with “The use of pure MHB-II was compatible with S3(B) and its fatty acid analogues, and therefore was chosen for the MIC determinations. Noticeably, MHB-I with BSA and acetic acid led to precipitation of lipopeptides in the present work.” left out
(§4) Cation-adjusted Mueller-Hinton broth (MHB-II) media (BD BBLTM Beef extract powder, BD BactoTMCasamino acids, and DIFCO soluble starch was from Becton, Dickinson and Company©, Franklin Lakes, NJ, USA). […] A VersaMaxTM Tunable Microplate Reader (Molecular Devices LLC, Sunnyvale, CA, USA) was used and the data were evaluated on a Softmax® Pro (Molecular Devices LLC).
(§5) The MIC experiments were performed according to a protocol adapted from Wiegand et al., with minor modifications. The MICs were determined in triplicate. […] The MIC values were visually evaluated, and the MIC was set to the lowest concentration […] based on triplicate measurements. […]

[6] = tested on: A. baumannii ATCC 19606; assay type: cell-based, Acinetobacter baumannii; details: MHB-II, inoculum 5 × 10^5 CFU/mL, 37 °C, 18–24 h, visual read-out, triplicate
Experimental: as §1, with “The use of pure MHB-II was compatible with S3(B) and its fatty acid analogues, and therefore was chosen for the MIC determinations. Noticeably, MHB-I with BSA and acetic acid led to precipitation of lipopeptides in the present work.” left out
as §4, §5

[7] = tested on: P. aeruginosa ATCC 27853; details: for log reduction of cell count within first hour of treatment: 1 h, MHB-II, 37 °C, shaking, n = 3
Experimental: The MIC constitutes a limited measure for antimicrobial activity. It indicates whether or not AMPs in different concentrations are able to prevent visible growth of bacteria.
Time-kill experiments were performed on balanced exponentially growing cultures of P. aeruginosa ATCC 27853. We used balanced cultures as described in Oddo et al.. Briefly, overnight cultures were prepared in MHB-II broth at 37 °C with shaking. Overnight cultures were back-diluted and grown exponentially for no less than 8–10 generations before experimentation. When experiments were done, exponentially growing cultures were back-diluted to an OD600 = 0.0005 approximately 5 × 10^5 CFU, into fresh MHB-II heated to 37 °C. Samples (250 μL) were taken at time points 0, 1, 3, 5, and 24 h. Samples were spun down at 8000× g for 5 min and washed in 1 mL of NaCl 0.9% before being spun down again and re-suspended in 250 μL NaCl 0.9%. From this, 10-fold dilution series were prepared and 10 μL samples were spot-plated in triplicate onto LB-agar. From the undiluted sample, 100 μL samples were also plated, i.e., giving a detection limit of 10 CFU/mL.

[8] = tested on: S. aureus ATCC 29213; test: microbe, parasite or virus in culture; assay type: cell-based, Staphylococcus aureus; details: Staphylococcus aureus, ATCC29213, read-out: Minimum inhibitory concentration, SA
Experimental: as §1, with “The use of pure MHB-II was compatible with S3(B) and its fatty acid analogues, and therefore was chosen for the MIC determinations. Noticeably, MHB-I with BSA and acetic acid led to precipitation of lipopeptides in the present work.” left out
as §4, §5

Compound	Minimum inhibitory concentration, KP [1]	%H, percent hemolytic activity against red blood cells at 150 μM [2]	%B at peak of elution in analytical HPLC (hydrophobicity) [3]	Minimum inhibitory concentration, EC [4]	other results
CCCC(=O)NCC[C@@H]1NC(=O)[C@H](CCN)NC(=O)[C@H](CCCNC(=N)N)NC(=O)[C@H](Cc2ccc3ccccc3c2)NC(=O)[C@H](CCN)NC(=O)[C@H](CC(N)=O)NC(=O)[C@H](CCN)NC(=O)[C@H](Cc2ccc3ccccc3c2)NC(=O)COCCOCCNC1=O [(C4)^5] (cyclo([Dab][2Nal]R[Dab][Dab](Butyryl)[AEEA][2Nal][Dab]N))	>64 µg/mL	5%	62%	64 µg/mL (≈ 50 µM)	%H, percent hemolytic activity against red blood cells at 150 μM ([2]; listed as (C4)^7): 4%; %B at peak of elution in analytical HPLC (hydrophobicity) ([3]; listed as (C4)^7): 64%
CCCCCC(=O)NCC[C@@H]1NC(=O)[C@H](CCN)NC(=O)[C@H](CCCNC(=N)N)NC(=O)[C@H](Cc2ccc3ccccc3c2)NC(=O)[C@H](CCN)NC(=O)[C@H](CC(N)=O)NC(=O)[C@H](CCN)NC(=O)[C@H](Cc2ccc3ccccc3c2)NC(=O)COCCOCCNC1=O [(C6)^5] (cyclo([Dab][2Nal]R[Dab][Dab](Hexanoyl)[AEEA][2Nal][Dab]N))	>64 µg/mL	13%	65%	32 µg/mL (≈ 24.5 µM)	Minimum inhibitory concentration, PA [5]: 16 µg/mL (≈ 12.2 µM); Minimum inhibitory concentration, AB [6]: 64 µg/mL (≈ 48.9 µM); %H, percent hemolytic activity against red blood cells at 150 μM ([2]; listed as (C6)^7): 8%; %B at peak of elution in analytical HPLC (hydrophobicity) ([3]; listed as (C6)^7): 69%
CC[C@H](C)CCCCC(=O)N[C@@H](CCN)C(=O)N[C@H](C(=O)N[C@@H](CCN)C(=O)N[C@H]1CCNC(=O)[C@H]([C@@H](C)O)NC(=O)[C@H](CCN)NC(=O)[C@H](CCN)NC(=O)[C@H](CC(C)C)NC(=O)[C@@H](CC(C)C)NC(=O)[C@H](CCN)NC1=O)[C@@H](C)O [Colistin, reference compound] (X1-[Dab]T[Dab][Dab][Dab][dL]L[Dab][Dab]T; lactam 4-C (inferred); N-terminus assumed)	0.5 µg/mL (≈ 0.428 µM)	–	–	0.25 µg/mL (≈ 0.214 µM)	log reduction of cell count within first hour of treatment ([7]; 5 × MIC ((C8)^5 40 μg/mL; colistin 2.5 μg/mL)): 4.5 log; cell count / growth after 24 h ([7]; 5 × MIC ((C8)^5 40 μg/mL; colistin 2.5 μg/mL), 24 h, detection limit 10 CFU/mL): No growth
N=C(N)NCCC[C@@H]1NC(=O)[C@H](Cc2ccc3ccccc3c2)NC(=O)[C@H](CCN)NC(=O)[C@H](CC(N)=O)NC(=O)[C@H](CCN)NC(=O)[C@H](Cc2ccc3ccccc3c2)NC(=O)COCCOCCNC(=O)[C@H](Cc2ccc(-c3ccccc3)cc2)NC(=O)[C@H](CCN)NC1=O [S3(B)] (cyclo([Dab][2Nal]R[Dab][Bip][AEEA][2Nal][Dab]N))	–	77%	71%	–	HD50 (hemolysis) ([2]; red cells of human): 69 µM; log reduction of cell count within first hour of treatment ([7]; 1 × MIC (8 μg/mL)): 2.5 log
CN[C@H](CC(C)C)C(=O)N[C@H]1C(=O)N[C@@H](CC(N)=O)C(=O)N[C@H]2C(=O)N[C@H]3C(=O)N[C@H](C(=O)N[C@H](C(=O)O)c4cc(O)cc(O)c4-c4cc3ccc4O)[C@H](O)c3ccc(c(Cl)c3)Oc3cc2cc(c3O[C@@H]2O[C@H](CO)[C@@H](O)[C@H](O)[C@H]2O[C@H]2C[C@](C)(N)[C@H](O)[C@H](C)O2)Oc2ccc(cc2Cl)[C@H]1O [Vancomycin, reference compound]	–	–	–	–	MIC [8]: 0.5 µg/mL (≈ 0.345 µM)
